Reference: publication PMC9090415, “Discovery of small molecule inhibitors of Plasmodium falciparum apicoplast DNA polymerase” (Journal of Enzyme Inhibition and Medicinal Chemistry, 2022)
pIC50: −log10 of the molar value.

Biological target: P. falciparum apicoplast DNA polymerase (Pf-apPOL) (Plasmodium falciparum, UniProt Q8ILY1)
Assay: Fluorescence-based high-throughput DNA polymerase assay (molecular beacon), primary screen and dose-response;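 as to % inhibition ApPOL 90': test concentration in µM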;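 as to % inhibition apPOL 180': test concentration in µM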
Assay type: biochemical
Outline: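 Single-point screening used 10 µM compound with 20 nM polymerase, 20 nM hairpin substrate and 6 µM dNTPs for 90 min at 25 °C. Confirmatory titrations (2.5–80 µM) followed fluorescence at three times, and IC50 was derived from a fit including a cooperativity term n.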

[1] = supplemental file 2, sheet IC50 nontoxic compounds; Pf-apPOL

Chain of P. falciparum apicoplast DNA polymerase (Pf-apPOL) (Q8ILY1 entry or part of it): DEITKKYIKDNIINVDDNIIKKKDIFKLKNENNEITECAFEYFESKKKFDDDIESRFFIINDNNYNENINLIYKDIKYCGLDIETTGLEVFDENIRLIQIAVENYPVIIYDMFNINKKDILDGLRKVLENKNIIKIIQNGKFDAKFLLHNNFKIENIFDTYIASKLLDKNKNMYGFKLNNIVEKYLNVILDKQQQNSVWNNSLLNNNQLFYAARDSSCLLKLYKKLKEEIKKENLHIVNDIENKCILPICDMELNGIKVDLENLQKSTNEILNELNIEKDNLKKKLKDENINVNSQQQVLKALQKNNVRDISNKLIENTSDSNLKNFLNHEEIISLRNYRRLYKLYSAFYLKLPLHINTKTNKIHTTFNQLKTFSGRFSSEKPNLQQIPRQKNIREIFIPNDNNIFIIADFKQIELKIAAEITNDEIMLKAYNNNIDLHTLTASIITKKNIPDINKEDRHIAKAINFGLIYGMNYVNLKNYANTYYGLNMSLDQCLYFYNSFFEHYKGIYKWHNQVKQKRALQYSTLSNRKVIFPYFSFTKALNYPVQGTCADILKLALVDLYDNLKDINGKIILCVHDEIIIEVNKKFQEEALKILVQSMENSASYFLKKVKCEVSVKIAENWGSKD

COc1ccc(NC(=O)Cn2nc3c(cc2=O)CCC3)cc1Cl [Molecule 4, COc1ccc(cc1Cl)NC(=O)Cn1nc2CCCc2cc1=O]
% inhibition Apo pol 10' (DRC-1; concentration 2.5; 10'): -1.67%
% inhibition Apol 90' (DRC-1; concentration 2.5; 90'): -5%
% inhibition apPOL 180' (DRC-1; concentration 2.5; 180'): -9%
% inhibition Apo pol 10' (DRC-1; concentration 5; 10'): 44%
% inhibition Apol 90' (DRC-1; concentration 5; 90'): 29%
% inhibition apPOL 180' (DRC-1; concentration 5; 180'): 17%
% inhibition Apo pol 10' (DRC-1; concentration 10; 10'): 88%
% inhibition Apol 90' (DRC-1; concentration 10; 90'): 78%
% inhibition apPOL 180' (DRC-1; concentration 10; 180'): 66%
% inhibition Apo pol 10' (DRC-1; concentration 20; 10'): 94%
% inhibition Apol 90' (DRC-1; concentration 20; 90'): 90%
% inhibition apPOL 180' (DRC-1; concentration 20; 180'): 86%
% inhibition Apo pol 10' (DRC-1; concentration 40; 10'): 93%
% inhibition Apol 90' (DRC-1; concentration 40; 90'): 92%
% inhibition apPOL 180' (DRC-1; concentration 40; 180'): 91%
% inhibition Apo pol 10' (DRC-1; concentration 80 (unit not given); 10'): 89%
% inhibition Apol 90' (DRC-1; concentration 80; 90'): 90%
% inhibition apPOL 180' (DRC-1; concentration 80; 180'): 91%
% inhibition Apol 40' (DRC-2; 40'; concentration 10): 69%
% inhibition Apol 40' (DRC-2; 40'; concentration 20): 69%
% inhibition ApPOL 90' (DRC-2; 90'; concentration 10): 71%
% inhibition ApPOL 90' (DRC-2; 90'; concentration 80): 71%
% inhibition apPOL 180' (DRC-2; 180'; concentration 5): 44%
% inhibition apPOL 180' (DRC-2; 180'; concentration 10): 69%
% inhibition apPOL 180' (DRC-2; 180'; concentration 40): 78%
% inhibition Apo pol 5' (DRC-2; concentration 2.5; 5'): 19%
% inhibition Apol 40' (DRC-2; concentration 2.5; 40'): 18%
% inhibition ApPOL 90' (DRC-2; concentration 2.5; 90'): 16%
% inhibition apPOL 180' (DRC-2; concentration 2.5; 180'): 8%
% inhibition Apo pol 5' (DRC-2; concentration 5; 5'): 46%
% inhibition Apol 40' (DRC-2; concentration 5; 40'): 55%
% inhibition ApPOL 90' (DRC-2; concentration 5; 90'): 54%
% inhibition apPOL 180' (DRC-2; concentration 5; 180'): 44%
% inhibition Apo pol 5' (DRC-2; concentration 10; 5'): 52%
% inhibition Apol 40' (DRC-2; concentration 10; 40'): 69%
% inhibition ApPOL 90' (DRC-2; concentration 10; 90'): 71%
% inhibition apPOL 180' (DRC-2; concentration 10; 180'): 69%
% inhibition Apo pol 5' (DRC-2; concentration 20; 5'): 49%
% inhibition Apol 40' (DRC-2; concentration 20; 40'): 69%
% inhibition ApPOL 90' (DRC-2; concentration 20; 90'): 73%
% inhibition apPOL 180' (DRC-2; concentration 20; 180'): 75%
% inhibition Apo pol 5' (DRC-2; concentration 40; 5'): 50%
% inhibition Apol 40' (DRC-2; concentration 40; 40'): 70%
% inhibition ApPOL 90' (DRC-2; concentration 40; 90'): 74%
% inhibition apPOL 180' (DRC-2; concentration 40; 180'): 78%
% inhibition Apo pol 5' (DRC-2; concentration 80; 5'): 43%
% inhibition Apol 40' (DRC-2; concentration 80; 40'): 65%
% inhibition ApPOL 90' (DRC-2; concentration 80; 90'): 71%
% inhibition apPOL 180' (DRC-2; concentration 80; 180'): 76%
% inhibition Apo pol 10' (first dose-response set; 10'; concentration 5): 44%
% inhibition Apol 90' (first dose-response set; 90'; concentration 10): 78%
% inhibition Apol 90' (first dose-response set; 90'; concentration 20): 90%
% inhibition Apol 90' (first dose-response set; 90'; concentration 80): 90%
% inhibition apPOL 180' (first dose-response set; 180'; concentration 40): 91%
% inhibition apPOL 180' (first dose-response set; 180'; concentration 80): 91%
DNA Pol (primary screen value of the 186 hits; unit not given; 90 min, 10 µM): 45
DNA Pol (primary screen value; head prints only 'DNA Pol'; 90 min, 10 µM): 45

COc1ccc(NC(=O)Cn2nc3c(cc2=O)CCC3)cc1Cl [Molecule 4]
pIC50 [1]: 5.28

COc1ccc(/C=C/c2cc(C(=O)O)c3ccccc3n2)cc1 [Molecule 5]
pIC50 [1]: 5.41

Cc1ccc(C)c(CSc2nc(C3CCCCC3)c(C#N)c(=O)[nH]2)c1 [Molecule 6, N#Cc1c(=O)[nH]c(nc1C1CCCCC1)SCc1cc(C)ccc1C]
DNA Pol ('DNA Pol' of the 186 hits list (primary screen result); unit not given; 90 min, 10 µM): 98
% inhibition Apo pol 10' (DRC-1; 10'; concentration 2.5): 19.6577%
% inhibition Apo pol 10' (DRC-1; 10'; concentration 5): 38.2184%
% inhibition Apo pol 10' (DRC-1; 10'; concentration 10): 71.2419%
% inhibition Apo pol 10' (DRC-1; 10'; concentration 20): 88.8023%
% inhibition Apo pol 10' (DRC-1; 10'; concentration 40): 92.9931%
% inhibition Apo pol 10' (DRC-1; 10'; concentration 80): 97.5171%
% inhibition Apol 90' (DRC-1; 90'; concentration 2.5): 7.563%
% inhibition Apol 90' (DRC-1; 90'; concentration 5): 29.5473%
% inhibition Apol 90' (DRC-1; 90'; concentration 10): 66.2339%
% inhibition Apol 90' (DRC-1; 90'; concentration 20): 83.4926%
% inhibition Apol 90' (DRC-1; 90'; concentration 40): 89.6774%
% inhibition Apol 90' (DRC-1; 90'; concentration 80): 97.7776%
% inhibition apPOL 180' (DRC-1; 180'; concentration 2.5): -0.2009%
% inhibition apPOL 180' (DRC-1; 180'; concentration 5): 17.3135%
% inhibition apPOL 180' (DRC-1; 180'; concentration 10): 54.7895%
% inhibition apPOL 180' (DRC-1; 180'; concentration 20): 77.2836%
% inhibition apPOL 180' (DRC-1; 180'; concentration 40): 85.5131%
% inhibition apPOL 180' (DRC-1; 180'; concentration 80): 97.5591%
% inhibition Apol 40' (DRC-2, 40', concentration 2.5 (unit not given)): 13%
% inhibition ApPOL 90' (DRC-2, 90', concentration 40 (unit not given)): 80%
% inhibition apPOL 180' (DRC-2, 180', concentration 5 (unit not given)): 10%
% inhibition apPOL 180' (DRC-2, 180', concentration 40 (unit not given)): 80%
% inhibition apPOL 180' (DRC-2, 180', concentration 80 (unit not given)): 80%
% inhibition Apo pol 5' (DRC-2; 5'; concentration 2.5): 9%
% inhibition Apo pol 5' (DRC-2; 5'; concentration 5): 13%
% inhibition Apo pol 5' (DRC-2; 5'; concentration 5 (unit not given)): 13%
% inhibition Apo pol 5' (DRC-2; 5'; concentration 20): 59%
% inhibition Apo pol 5' (DRC-2; 5'; concentration 40): 63%
% inhibition Apo pol 5' (DRC-2; 5'; concentration 80): 61%
% inhibition Apol 40' (DRC-2; 40'; concentration 2.5): 13%
% inhibition Apol 40' (DRC-2; 40'; concentration 5): 18%
% inhibition Apol 40' (DRC-2; 40'; concentration 10): 51%
% inhibition Apol 40' (DRC-2; 40'; concentration 20): 69%
% inhibition Apol 40' (DRC-2; 40'; concentration 40): 77%
% inhibition Apol 40' (DRC-2; 40'; concentration 80): 75%
% inhibition ApPOL 90' (DRC-2; 90'; concentration 2.5): 10%
% inhibition ApPOL 90' (DRC-2; 90'; concentration 2.5 (unit not given)): 10%
% inhibition ApPOL 90' (DRC-2; 90'; concentration 5): 16%
% inhibition ApPOL 90' (DRC-2; 90'; concentration 10): 50%
% inhibition ApPOL 90' (DRC-2; 90'; concentration 20): 71%
% inhibition ApPOL 90' (DRC-2; 90'; concentration 40): 80%
% inhibition ApPOL 90' (DRC-2; 90'; concentration 80): 78%
% inhibition apPOL 180' (DRC-2; 180'; concentration 2.5): 5.53%
% inhibition apPOL 180' (DRC-2; 180'; concentration 5): 10%
% inhibition apPOL 180' (DRC-2; 180'; concentration 20): 67%
% inhibition apPOL 180' (DRC-2; 180'; concentration 40): 80%
% inhibition apPOL 180' (DRC-2; 180'; concentration 80): 80%
DNA Pol (primary screen value of the library well; unit not given; 90 min, 10 µM): 98

Cc1ccc(C)c(CSc2nc(C3CCCCC3)c(C#N)c(=O)[nH]2)c1 [Molecule 6]
pIC50 [1]: 5.19
